As usually defined, the IC50 is the concentration that gives 50% inhibition. For orientation: Ki means a measure of affinity in units of concentration, obtained from inhibition or displacement.

Data on 7 compounds can be found in ChEMBL document CHEMBL1909046, “DrugMatrix in vitro pharmacology data”.

Assay [1] has as its target T1, Nitric oxide synthase, inducible (Mus musculus, UniProt P29477).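 Further: inhibition of iNOS enzyme activity measured with L-arginine as substrate; in other assays of this panel Not Active means under 50% inhibition at 10 µM.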
T1 sequence (P29477 whole entry): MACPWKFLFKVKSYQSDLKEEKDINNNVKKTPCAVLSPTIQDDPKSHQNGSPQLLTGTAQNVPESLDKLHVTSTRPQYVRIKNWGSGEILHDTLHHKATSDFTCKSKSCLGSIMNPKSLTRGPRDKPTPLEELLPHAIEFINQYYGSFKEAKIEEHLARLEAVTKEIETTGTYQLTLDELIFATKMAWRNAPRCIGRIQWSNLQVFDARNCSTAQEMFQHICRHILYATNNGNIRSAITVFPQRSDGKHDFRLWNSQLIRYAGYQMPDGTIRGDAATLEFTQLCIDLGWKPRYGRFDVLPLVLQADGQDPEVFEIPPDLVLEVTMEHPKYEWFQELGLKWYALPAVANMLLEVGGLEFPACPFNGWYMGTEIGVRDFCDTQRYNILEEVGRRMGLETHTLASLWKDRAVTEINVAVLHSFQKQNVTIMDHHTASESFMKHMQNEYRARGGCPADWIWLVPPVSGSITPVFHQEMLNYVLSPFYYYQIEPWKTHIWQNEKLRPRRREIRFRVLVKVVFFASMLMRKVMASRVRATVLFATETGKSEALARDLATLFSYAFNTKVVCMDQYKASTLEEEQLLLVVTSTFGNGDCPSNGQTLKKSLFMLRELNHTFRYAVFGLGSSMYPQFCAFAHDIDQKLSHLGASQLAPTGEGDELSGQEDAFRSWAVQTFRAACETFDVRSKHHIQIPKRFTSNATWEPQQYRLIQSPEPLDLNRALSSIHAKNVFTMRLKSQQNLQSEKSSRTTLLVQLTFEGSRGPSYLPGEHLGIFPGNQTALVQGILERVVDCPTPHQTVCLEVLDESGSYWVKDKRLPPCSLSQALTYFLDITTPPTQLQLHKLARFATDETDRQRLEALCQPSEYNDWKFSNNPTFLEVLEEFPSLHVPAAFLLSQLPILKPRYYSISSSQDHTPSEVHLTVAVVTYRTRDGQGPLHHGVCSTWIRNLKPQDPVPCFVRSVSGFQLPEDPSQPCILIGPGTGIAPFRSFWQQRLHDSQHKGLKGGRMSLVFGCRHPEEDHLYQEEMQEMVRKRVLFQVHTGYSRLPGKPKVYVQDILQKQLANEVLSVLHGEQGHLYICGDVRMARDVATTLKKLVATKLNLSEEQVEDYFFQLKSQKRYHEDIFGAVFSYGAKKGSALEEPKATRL
Also noted: species or system Escherichia coli.

A short description of assay [2]: DRUGMATRIX: Atrial Natriuretic Factor (ANF) radioligand binding (ligand: [125I] ANF (rat)). The conditions noted are these: Not Active = under 50% inhibition at 10 µM. Type of assay: cell membranes, Cavia porcellus, Dunkin-Hartley, Adrenal gland, Membrane.
Assay [3] is described as follows: DRUGMATRIX: Phorbol Ester radioligand binding (ligand: [3H] PDBu). Type of assay: cell membranes, Mus musculus, ICR, Brain, Membrane. The conditions noted are these: Not Active = under 50% inhibition at 10 µM.
For assay [4], the target named is T2, Type-2 angiotensin II receptor (Homo sapiens, UniProt P50052). Further: in other assays of this panel Not Active means under 50% inhibition at 10 µM.
T2 sequence (P50052 whole entry): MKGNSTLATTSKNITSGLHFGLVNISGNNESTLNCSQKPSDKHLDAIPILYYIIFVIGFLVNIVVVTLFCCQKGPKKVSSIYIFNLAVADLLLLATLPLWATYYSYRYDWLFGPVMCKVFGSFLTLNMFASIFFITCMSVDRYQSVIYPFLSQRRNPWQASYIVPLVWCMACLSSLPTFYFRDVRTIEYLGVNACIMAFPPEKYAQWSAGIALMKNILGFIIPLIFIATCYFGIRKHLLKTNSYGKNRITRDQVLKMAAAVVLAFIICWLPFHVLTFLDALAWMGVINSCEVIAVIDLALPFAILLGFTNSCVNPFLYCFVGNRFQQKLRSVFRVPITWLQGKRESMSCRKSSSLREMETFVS
Briefly: biochemical. The following applies: cho-k1. Type of assay: cell-based, CHO-K1.

Assay [5] in a line: DRUGMATRIX: Glutamate, Kainate radioligand binding (ligand: [3H] Kainic acid). It counts as cell membranes, Rattus norvegicus, Wistar, Brain, Membrane. The following applies: Not Active = under 50% inhibition at 10 µM.
The target in assay [6] is T3, Alpha-2A adrenergic receptor (Homo sapiens, UniProt P08913). Further: in other assays of this panel Not Active means under 50% inhibition at 10 µM.
T3 sequence (P08913 whole entry): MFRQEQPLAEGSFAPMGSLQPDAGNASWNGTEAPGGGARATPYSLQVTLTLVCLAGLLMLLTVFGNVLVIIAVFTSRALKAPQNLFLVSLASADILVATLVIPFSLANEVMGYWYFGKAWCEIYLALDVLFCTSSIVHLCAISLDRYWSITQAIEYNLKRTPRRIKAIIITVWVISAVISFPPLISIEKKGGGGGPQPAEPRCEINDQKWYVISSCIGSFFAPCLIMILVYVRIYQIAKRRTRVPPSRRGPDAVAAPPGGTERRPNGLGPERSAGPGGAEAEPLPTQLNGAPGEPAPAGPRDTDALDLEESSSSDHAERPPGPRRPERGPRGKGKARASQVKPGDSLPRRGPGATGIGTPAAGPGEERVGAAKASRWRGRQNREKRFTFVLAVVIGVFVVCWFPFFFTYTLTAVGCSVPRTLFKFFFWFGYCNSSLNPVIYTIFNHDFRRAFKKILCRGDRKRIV
It counts as cell membranes, Sf9, Membrane.

Another assay deals with Vasopressin V1a receptor (Homo sapiens, UniProt P37288). Type of assay: cell membranes, Membrane. The following applies: hek293.
Assay [7] addresses Vascular endothelial growth factor receptor 1 (Homo sapiens, UniProt P17948). It counts as cell-based. The following applies: huvec.

Vascular endothelial growth factor receptor 1, sequence (P17948 whole entry): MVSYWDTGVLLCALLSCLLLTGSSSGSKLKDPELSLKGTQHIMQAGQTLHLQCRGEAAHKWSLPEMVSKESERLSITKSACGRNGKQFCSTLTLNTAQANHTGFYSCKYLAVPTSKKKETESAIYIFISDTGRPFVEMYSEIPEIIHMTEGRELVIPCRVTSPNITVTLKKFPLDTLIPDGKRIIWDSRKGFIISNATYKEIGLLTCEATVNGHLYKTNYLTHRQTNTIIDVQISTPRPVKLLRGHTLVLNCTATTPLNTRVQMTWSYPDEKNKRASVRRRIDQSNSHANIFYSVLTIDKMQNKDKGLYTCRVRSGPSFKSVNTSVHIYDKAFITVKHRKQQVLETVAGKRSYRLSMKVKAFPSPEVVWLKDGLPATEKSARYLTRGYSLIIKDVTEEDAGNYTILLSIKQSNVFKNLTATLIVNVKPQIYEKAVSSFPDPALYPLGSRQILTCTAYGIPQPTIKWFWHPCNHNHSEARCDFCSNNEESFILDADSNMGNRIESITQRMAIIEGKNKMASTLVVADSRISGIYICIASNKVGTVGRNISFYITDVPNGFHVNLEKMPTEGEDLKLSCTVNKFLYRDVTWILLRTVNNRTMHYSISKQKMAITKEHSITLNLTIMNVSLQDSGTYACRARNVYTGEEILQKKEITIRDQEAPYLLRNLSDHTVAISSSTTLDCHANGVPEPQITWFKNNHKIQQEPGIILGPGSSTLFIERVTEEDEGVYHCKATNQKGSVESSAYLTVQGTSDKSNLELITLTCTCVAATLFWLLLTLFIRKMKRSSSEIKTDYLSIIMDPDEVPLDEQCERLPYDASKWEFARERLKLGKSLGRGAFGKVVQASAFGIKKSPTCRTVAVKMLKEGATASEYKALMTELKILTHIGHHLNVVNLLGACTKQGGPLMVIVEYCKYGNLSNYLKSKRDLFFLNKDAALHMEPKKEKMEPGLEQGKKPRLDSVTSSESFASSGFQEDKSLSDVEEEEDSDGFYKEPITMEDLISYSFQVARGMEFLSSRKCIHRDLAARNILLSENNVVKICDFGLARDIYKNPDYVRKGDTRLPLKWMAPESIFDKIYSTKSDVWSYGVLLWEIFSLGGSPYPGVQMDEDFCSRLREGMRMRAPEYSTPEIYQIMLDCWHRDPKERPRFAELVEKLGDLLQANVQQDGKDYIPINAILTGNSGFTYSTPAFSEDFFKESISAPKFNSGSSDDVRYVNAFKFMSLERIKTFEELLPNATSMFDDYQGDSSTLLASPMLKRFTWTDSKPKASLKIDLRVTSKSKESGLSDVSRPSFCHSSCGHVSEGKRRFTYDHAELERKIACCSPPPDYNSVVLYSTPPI
Vasopressin V1a receptor, sequence (P37288 whole entry): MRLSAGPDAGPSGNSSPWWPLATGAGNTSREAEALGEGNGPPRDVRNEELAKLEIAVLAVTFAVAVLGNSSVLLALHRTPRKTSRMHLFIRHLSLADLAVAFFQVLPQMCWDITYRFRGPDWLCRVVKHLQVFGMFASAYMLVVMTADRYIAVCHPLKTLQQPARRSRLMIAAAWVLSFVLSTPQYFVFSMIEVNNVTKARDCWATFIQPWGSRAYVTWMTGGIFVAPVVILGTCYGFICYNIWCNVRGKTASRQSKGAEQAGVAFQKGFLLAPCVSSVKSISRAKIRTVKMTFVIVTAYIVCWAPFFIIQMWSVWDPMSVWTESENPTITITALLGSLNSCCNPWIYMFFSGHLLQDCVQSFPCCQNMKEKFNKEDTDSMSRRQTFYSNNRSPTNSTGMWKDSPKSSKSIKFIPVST

As for `CCN(CC)CCNC(=O)c1ccc(N)cc1` [PROCAINAMIDE], the IC50 entry in assay [1], in assay [2], in assay [3], in assay [4], in assay [5] and in assay [6] (sf9) was “Not Active” each time. Further, the 50% inhibitory concentration (IC50) entry (against Vasopressin V1a receptor; in assay [7]) was “Not Active” throughout. Besides, the Ki entry in assay [2], in assay [3] and in assay [5] was “Not Active” each time.

As for `CCN(CC)CCCC(C)Nc1c2ccc(Cl)cc2nc2ccc(OC)cc12` (stereo not drawn) [QUINACRINE], the IC50 entry in assay [1] is “Not Active”; in assay [2], “Not Active”; in assay [3], “Not Active”; in assay [4], “Not Active”; in assay [5] it was “Not Active”; in assay [6] (read-out: IC50) it was 2280 nM. The IC50 result (against Vasopressin V1a receptor; in assay [7]) was “Not Active” throughout. In addition, the Ki result in assay [2] was “Not Active”; in assay [3] it was “Not Active”; in assay [5], “Not Active”; in assay [6] (read-out: Ki), 855 nM.

In the case of `C[C@]12C=CC(=O)C=C1CC[C@H]1[C@@H]3C[C@@H](O)[C@](O)(C(=O)CO)[C@@]3(C)C[C@H](O)[C@@]12F` [TRIAMCINOLONE], the IC50 result in assay [1], in assay [2], in assay [3], in assay [4], in assay [5] and in assay [6] (sf9) was “Not Active” in each case. The IC50 result (against Vasopressin V1a receptor; in assay [7]) was “Not Active” in each case. Also, the Ki entry in assay [2], in assay [3] and in assay [5] was “Not Active” in each case.

Turning to `CC[C@]1(O)C[C@@H]2CN(CCc3c([nH]c4ccccc34)[C@@](C(=O)OC)(c3cc4c(cc3OC)N(C)[C@H]3[C@@](O)(C(N)=O)[C@H](O)[C@]5(CC)C=CCN6CC[C@]43[C@@H]65)C2)C1` [VINDESINE], the concentration for half-maximal inhibition (IC50) entry in assay [1], in assay [2], in assay [3], in assay [4], in assay [5] and in assay [6] (sf9) was “Not Active” in each case. For the same compound, the IC50 entry (at Vasopressin V1a receptor; in assay [7]) was “Not Active” each time. Further, the Ki result in assay [2], in assay [3] and in assay [5] was “Not Active” each time.

Regarding `CCN(C(C)=O)c1cccc(-c2ccnc3c(C#N)cnn23)c1` [ZALEPLON], the half-inhibitory concentration (IC50) result in assay [1], in assay [2], in assay [3], in assay [4], in assay [5] and in assay [6] (sf9) was “Not Active” each time. Moreover, the IC50 result (at Vasopressin V1a receptor; in assay [7]) was “Not Active” each time. The Ki entry in assay [2], in assay [3] and in assay [5] was “Not Active” each time.

Consider COBALTOUS CHLORIDE, for which the IC50 entry in assay [1], in assay [2], in assay [3], in assay [4], in assay [5] and in assay [6] (sf9) was “Not Active” throughout. The IC50 result (at Vasopressin V1a receptor; in assay [7]) was “Not Active” in each case. Also, the Ki result in assay [1], in assay [2], in assay [3], in assay [4], in assay [5] and in assay [6] (sf9) was “Not Active” each time. Besides, the Ki result (at Vasopressin V1a receptor; in assay [7]) was “Not Active” each time.

In the case of COLISTIN, the IC50 entry in assay [1], in assay [2], in assay [3], in assay [4], in assay [5] and in assay [6] (sf9) was “Not Active” in each case. Also, the IC50 result (at Vasopressin V1a receptor; in assay [7]) was “Not Active” each time. The Ki result in assay [1], in assay [2], in assay [3], in assay [4], in assay [5] and in assay [6] (sf9) was “Not Active” throughout. The Ki entry (on Vasopressin V1a receptor; in assay [7]) was “Not Active” throughout.
